# Results published in ChEMBL document CHEMBL1152129, “Quantitative structure-activity relationship and complex network approach to monoamine oxidase A and B inhibitors” (J Med Chem, 2008).
# Experiments:
# Homo sapiens = species: Homo sapiens; test: Selectivity ratio of IC50 for human recombinant MAOA to IC50 for human recombinant MAOB
# [1] = target: T1, Amine oxidase [flavin-containing] B (Homo sapiens, UniProt P27338); test: Inhibition of human recombinant MAOB at 50 uM by fluorimetric method
# T1 sequence (P27338 whole entry): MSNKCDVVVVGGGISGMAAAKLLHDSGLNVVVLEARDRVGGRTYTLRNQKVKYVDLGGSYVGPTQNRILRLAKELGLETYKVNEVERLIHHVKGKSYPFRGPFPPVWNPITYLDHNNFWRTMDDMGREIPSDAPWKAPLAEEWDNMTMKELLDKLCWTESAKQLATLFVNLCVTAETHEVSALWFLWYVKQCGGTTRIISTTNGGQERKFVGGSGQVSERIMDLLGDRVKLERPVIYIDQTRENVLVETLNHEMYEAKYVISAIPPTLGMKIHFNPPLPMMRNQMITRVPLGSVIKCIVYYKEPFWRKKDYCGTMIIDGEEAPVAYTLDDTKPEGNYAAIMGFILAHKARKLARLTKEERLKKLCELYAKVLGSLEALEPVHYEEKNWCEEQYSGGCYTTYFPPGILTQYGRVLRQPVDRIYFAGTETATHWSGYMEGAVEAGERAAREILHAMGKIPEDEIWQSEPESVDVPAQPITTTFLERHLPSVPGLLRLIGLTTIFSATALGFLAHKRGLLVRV
# [2] = target: T2, Amine oxidase [flavin-containing] A (Homo sapiens, UniProt P21397); test: Inhibition of human recombinant MAOA by fluorimetric method
# T2 sequence (P21397 whole entry): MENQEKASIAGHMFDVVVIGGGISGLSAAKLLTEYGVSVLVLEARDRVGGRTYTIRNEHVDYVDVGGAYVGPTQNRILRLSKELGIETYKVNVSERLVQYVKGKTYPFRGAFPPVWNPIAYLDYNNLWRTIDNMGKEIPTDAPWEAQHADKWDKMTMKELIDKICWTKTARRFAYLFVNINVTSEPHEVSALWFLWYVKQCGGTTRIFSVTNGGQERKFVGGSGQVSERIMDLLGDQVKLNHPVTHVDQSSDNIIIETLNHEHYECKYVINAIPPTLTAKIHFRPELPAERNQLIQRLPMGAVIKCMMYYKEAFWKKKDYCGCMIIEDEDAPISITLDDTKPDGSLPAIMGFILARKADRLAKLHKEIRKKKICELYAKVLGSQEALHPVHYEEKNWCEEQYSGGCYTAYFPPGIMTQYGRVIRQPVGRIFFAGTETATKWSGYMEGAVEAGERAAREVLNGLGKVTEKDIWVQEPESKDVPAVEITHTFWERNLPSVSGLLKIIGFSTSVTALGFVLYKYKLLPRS
Structure (SMILES),Ratio IC50 (Homo sapiens),Activity [1],IC50 [2] [µM]
COc1c(OC2CCCCC2=O)ccc2c(C)cc(=O)oc12 (stereo unspecified),< 0.31,Not Active,15.4
COc1cc(OC2CCCCC2=O)cc2oc(=O)ccc12 (stereo unspecified),< 0.41,Not Active,20.4
